Experimental data: PubChem BioAssay (NCI)
“And” between values parts separate entries of the source, which are not always exact repeats. Equal values may be shown once.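 In this assay, cells in 96-well plates receive the compound at five concentrations for 48 hours. Endpoints are linearly interpolated between the surrounding concentrations. Abbreviation: GI50, concentration required for 50% inhibition of growth. The concentration for full growth arrest is given as TGI.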

How the values were obtained:
Test in all cases: inhibition of tumour cell growth, NCI panel, 48 h
U251 CNS = test system: U251 CNS
T-47D breast = test system: T-47D breast
OVCAR-4 ovarian = test system: OVCAR-4 ovarian
NCI/ADR-RES ovarian = test system: NCI/ADR-RES ovarian
OVCAR-5 ovarian = test system: OVCAR-5 ovarian
A549 NSCLC = test system: A549 NSCLC
SK-MEL-2 melanoma = test system: SK-MEL-2 melanoma
NCI-H522 lung = test system: NCI-H522 lung
RXF 393 renal = test system: RXF 393 renal
CCRF-CEM leukemia = test system: CCRF-CEM leukemia

Structure (SMILES) | TGI (U251 CNS) | TGI (T-47D breast) [µM] | TGI (OVCAR-4 ovarian) | TGI (NCI/ADR-RES ovarian) [µM] | TGI (OVCAR-5 ovarian) | TGI (A549 NSCLC) | TGI (SK-MEL-2 melanoma) | TGI (NCI-H522 lung) | TGI (RXF 393 renal) [µM] | TGI (CCRF-CEM leukemia) | GI50 (U251 CNS) [µM] | GI50 (T-47D breast) [µM] | GI50 (OVCAR-4 ovarian) [µM] | GI50 (NCI-H522 lung) [µM] | GI50 (NCI/ADR-RES ovarian) [µM] | GI50 (OVCAR-5 ovarian) [µM] | GI50 (A549 NSCLC) [µM] | GI50 (CCRF-CEM leukemia) [µM] | GI50 (SK-MEL-2 melanoma) [µM] | GI50 (RXF 393 renal) [µM]
CSC1(CC(=O)N2CCCCC2)C(=O)Nc2ccccc21 (stereo not drawn) | > 100 µM | > 100 | > 100 µM | > 100 | > 100 µM | > 100 µM | > 100 µM | – | – | – | – | – | – | – | – | – | – | – | – | –
Cc1ccc(NC(=O)CC2C(=O)Nc3ccccc3S2=O)c(C)c1 (stereo not drawn) | 27 µM | – | 41.6 µM | – | > 100 µM | 64.8 µM | 35.9 µM | 22 µM | 24.1 | 67 µM | – | – | – | – | – | – | – | – | – | –
COc1ccc(C2CC(=O)c3c(O)c(OC)c(OC)c(OC)c3O2)cc1O (stereo not drawn) | > 100 µM | 77.9 | > 100 µM | > 100 | > 100 µM | > 100 µM | > 100 µM | 0.775 µM | – | > 100 µM | 0.191 | 19.2 | 3.78 | 0.0386 | 0.0616 | > 100 | 0.817 | 0.115 | 0.24 | –
COc1cc(Nc2nc3cc(C(F)(F)F)ccc3nc2C)cc(OC)c1OC | 22.4 µM | – | 34 µM | – | 26.7 µM | – | 23.6 µM | 25 µM | 17.9 | 24.3 µM | – | – | – | – | – | – | – | – | – | –
FC(F)(F)c1cccc(C2SCc3nc4ccccc4n32)c1 (stereo not drawn) | > 100 µM | – | – | – | > 100 µM | > 100 µM | > 100 µM | > 100 µM | > 100 | > 100 µM | – | – | – | – | – | – | – | – | – | –
COc1ccc(C2C3=C(COC3=O)Oc3cc4c(cc32)OCO4)cc1 (stereo not drawn) | > 100 µM | – | > 100 µM | – | – | > 100 µM | > 100 µM | – | > 100 | > 100 µM | – | – | – | – | – | – | – | – | – | –
O=C(Cc1ccccc1)NS(=O)(=O)c1ccccc1 | > 100 µM | – | > 100 µM | – | > 100 µM | > 100 µM | > 100 µM | > 100 µM | > 100 | > 100 µM | – | – | – | – | – | – | – | – | – | –
Cc1c(CC/C(=N\Nc2ccc([N+](=O)[O-])cc2[N+](=O)[O-])c2ccccc2)c2ccccc2n1C | > 100 µM | – | > 100 µM | – | > 100 µM | > 100 µM | > 100 µM | > 100 µM | > 83.6 | > 66.6 µM | – | – | – | – | – | – | – | – | – | –
O=NN(CCCl)C(=O)N[C@H]1CCCC[C@@H]1Cl | > 100 µM | – | > 100 µM | – | – | > 100 µM | > 100 µM | > 100 µM | > 100 | 43.7 µM | – | – | – | – | – | – | – | – | – | –
CC(C)c1ccc2nc3ccc(C(=O)NCCN4CCN(c5ccccc5)CC4)cn3c(=O)c2c1 | > 100 µM | – | > 100 µM | > 100 | > 100 µM | > 100 µM | – | > 100 µM | – | > 100 µM | – | – | – | – | – | – | – | – | – | –
c1ccc2c(c1)[nH]c1c2ncc2[nH]c3ccccc3c21 | 5.64 µM | – | 3.79 µM | – | 22.9 µM | 22.6 µM | 33.7 µM | 21 µM | – | 9.45 µM | – | – | – | – | – | – | – | – | – | –
CC1=CC(=O)c2ccc(C)cc2C1=O | 25.7 µM | 15 | 52.5 µM | > 100 | 35.4 µM | 36.9 µM | 44.3 µM | 18.5 µM | – | 12.4 µM | – | – | – | – | – | – | – | – | – | –
CC1=Nc2ccccc2C12C(c1ccccc1)C(c1ccccc1)C(=O)N1c3ccccc3CC12 (stereo not drawn) | > 100 µM | – | > 100 µM | – | > 100 µM | > 100 µM | > 100 µM | > 100 µM | > 100 | – | – | – | – | – | – | – | – | – | – | –
CCOC(=O)C(C(=O)OCC)=c1sc(=C(C(=O)OCC)C(=O)OCC)s1 | – | – | > 100 µM | – | > 100 µM | > 100 µM | > 100 µM | > 100 µM | > 100 | > 100 µM | – | – | – | – | – | – | – | – | – | –
C[CH2][Sn]([CH2]C)([O]C(=O)c1ccc(F)cc1)[O][Sn]([CH2]C)([CH2]C)[O]C(=O)c1ccc(F)cc1 | > 100 µM | – | > 100 µM | – | > 100 µM | > 100 µM | 83.3 µM | 12.4 µM | 29.9 | 57.6 µM | 29.8 | – | > 100 | 3.01 | – | > 100 | > 100 | 10.7 | 28.5 | 15.7
COC(C)(C)[C@H](O)C(O)CC(C)[C@@H]1CCC23CC12CCC1[C@@]2(C)CCC(OC(C)=O)C(C)(C)C2CC(OC2OC(COC(C)=O)C(O)C(O)C2O)[C@]13C (stereo partly drawn) | 9.64 µM and 17.7 µM | – | 13.1 µM and 21.3 µM | – | 8.54 µM and 14.3 µM | 10.1 µM and 13.8 µM | 17.6 µM and 14.8 µM | 6.72 µM and 17.7 µM | 11.8 | 9.67 µM and 17.3 µM | 5.3 | – | 7.01 | 3.85 | – | 3.92 | 3.67 | 4.08 | 4.34 | –
O=C(O)[C@@H](NS(=O)(=O)c1ccc([N+](=O)[O-])cc1)c1ccccc1 | > 100 µM | – | > 100 µM | – | > 100 µM | > 100 µM | > 100 µM | > 100 µM | > 100 | > 100 µM | – | – | – | – | – | – | – | – | – | –
CCOCCOC[C@H]1CCCN(c2ccnc3sc(C(N)=O)c(N)c23)C1 | > 100 µM | > 100 | > 100 µM | – | > 100 µM | > 100 µM | > 100 µM | > 100 µM | > 100 | – | > 100 | 3.9 | 13.5 | 10.3 | – | > 100 | 77.4 | – | 11.1 | 47.8
CC(C)c1cccc(C(C)C)c1NC(=O)CCC(=O)NN | > 100 µM | – | > 100 µM | – | > 100 µM | > 100 µM | – | – | – | > 100 µM | – | – | – | – | – | – | – | – | – | –
CCOC(=O)c1cc(OC(=O)CC)c2c(OC)ccc(OC)c2c1 | > 100 µM | – | > 100 µM | – | > 100 µM | > 100 µM | > 100 µM | > 100 µM | 69.7 | – | – | – | – | – | – | – | – | – | – | –
CCCN1C(=O)CNC(=O)c2[nH]cnc21 | > 100 µM | – | – | – | > 100 µM | > 100 µM | > 100 µM | > 100 µM | > 100 | > 100 µM | – | – | – | – | – | – | – | – | – | –
Cc1c(-c2nnc(-c3cc(Cl)c(Cl)cc3Cl)o2)nnn1-c1ccnc2c(C(F)(F)F)cccc12 | 37.4 µM | 77.4 | 65.8 µM | 57.1 | 94.2 µM | 42.9 µM | 52 µM | 55.8 µM | – | – | 19.3 | 21.7 | 23.9 | 21.8 | 22.7 | 32.1 | 17.8 | – | 19.9 | –
